Laboratory results published in patent US20160374911A1, “PLANT EXTRACT COMPOSITION FOR SKIN WHITENING AND REDUCING MELANIN AS WELL AS APPLICATION THEREOF” (CALIWAY BIOPHARMACEUTICALS CO., LTD., priority 2015, published 2016).

Target: T1, tyrosinase activity in mouse melanoma B16-F10 cells (Mus musculus, UniProt P11344)
T1 construct: Mouse melanoma B16-F10 cells were used; endogenous in cells; host or cells: mouse melanoma B16-F10 cells
T1 sequence (P11344 19-533): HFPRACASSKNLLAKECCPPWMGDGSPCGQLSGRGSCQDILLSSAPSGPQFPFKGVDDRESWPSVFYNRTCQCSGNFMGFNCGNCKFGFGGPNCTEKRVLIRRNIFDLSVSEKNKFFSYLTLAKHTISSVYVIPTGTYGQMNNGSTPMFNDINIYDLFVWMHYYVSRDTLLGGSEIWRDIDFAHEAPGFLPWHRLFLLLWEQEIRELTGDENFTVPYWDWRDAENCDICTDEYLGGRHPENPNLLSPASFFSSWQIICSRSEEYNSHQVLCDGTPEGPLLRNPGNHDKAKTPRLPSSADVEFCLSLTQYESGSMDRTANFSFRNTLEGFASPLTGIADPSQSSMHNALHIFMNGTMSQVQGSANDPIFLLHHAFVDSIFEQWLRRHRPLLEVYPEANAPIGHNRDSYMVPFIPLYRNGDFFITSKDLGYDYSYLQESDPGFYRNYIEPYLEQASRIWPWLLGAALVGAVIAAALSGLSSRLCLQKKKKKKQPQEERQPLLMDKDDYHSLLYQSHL
Assay: Inhibition of tyrosinase (melanogenesis induction firstly, then administration), L-DOPA conversion
Type: cell-based
Details: 250 ppm arbutin, 6 ppm resveratrol, 8 ppm curcumin, 8 ppm compositions; 48 hours after α-MSH; absorbance 405 nm within 60 minutes

## OC[C@H]1O[C@@H](Oc2ccc(O)cc2)[C@H](O)[C@@H](O)[C@@H]1O [arbutin]
  activity of tyrosinase compared with control group (in words): reduced the activity of tyrosinase

## COc1cc(/C=C/C(=O)CC(=O)/C=C/c2ccc(O)c(OC)c2)ccc1O [curcumin]
  activity of tyrosinase compared with control group (in words): reduced the activity of tyrosinase
